Measured values from US20100316728A1, “Therapeutic mask and Method of Treatment Employing the Same” (priority 2009, published 2010).
Where “and” joins values, the source holds several entries; their conditions need not be identical. Equal entries are not always repeated.

How the values were obtained:
Assay type in all cases: in vivo, human
[1] = tested on: patients; assay: Patient questionnaire on mask application, removal and skin reactions (dryness, burning, redness, itching, stinging); details: per patient, yes/no
[2] = tested on: patients; assay: Pain level felt by patients using the mask (with Lidocaine)
[3] = tested on: patients; assay: Numbness felt by patients using the mask (with Lidocaine); details: per patient
Source text: A separate and distinct benefit has been discovered through the use of the instant invention. […] This aids the speed in which the process can be performed on a patient.

[4] = Pain Rate section, Results with Lidocaine, right side = side without mask, per patient
[5] = Results with Lidocaine, left side, mask on one side only, one value per patient, 10 = highest pain
[6] = Results with Lidocaine, right side, mask on one side only, one value per patient, 10 = highest pain
[7] = Table IX, CO2 procedure, unmasked side, per patient
[8] = Table VIII Pain Data, unmasked side, per patient
[9] = Table X, CO2 procedure, unmasked side, per patient
[10] = Table XII, unmasked side, 0-10 scale, per patient
[11] = Table IX, CO2 procedure, unmasked side
[12] = Table X, CO2 procedure, unmasked side
[13] = Table XI, unmasked side, 0-10 scale

Structure (SMILES): CCN(CC)CC(=O)Nc1c(C)cccc1C [Lidocaine]
- Dryness Right side [1]: no
- Burning Right ([1]; right side): no (2×) and yes
- Itching Right ([1]; right side): no
- Redness Right ([1]; right side): yes (2×) and no
- Stinging Right ([1]; right side): yes (2×) and no
- Pain After proc. Cheeks (Left Side) ([2]; 1-10 scale, 1 least pain, 10 highest, after Fraxel or CO2 procedure, cheeks, left side): 10 and 6 and 5
- Pain After proc. Chin (Left Side) ([2]; 1-10 scale, 1 least pain, 10 highest, after Fraxel or CO2 procedure, chin, left side): 10 and 6 and 5
- Pain After proc. Forehead (Left Side) ([2]; 1-10 scale, 1 least pain, 10 highest, after Fraxel or CO2 procedure, forehead, left side): 10 and 6
- Average Right Side ([2]; Pain Rate section, Results with Lidocaine, average pain, right side = side without mask, per patient): 8.00 and 5.00 and 9.00 and 2.00
- Pain After proc. Cheeks (Right Side) [2, 4]: 8 and 5 and 9 and 2
- Pain After proc. Chin (Right Side) [2, 4]: 8 and 5 and 9 and 2
- Pain After proc. Forehead (Right Side) [2, 4]: 8 and 5 and 9 and 2
- Pain After proc. Mouth (Right Side) [2, 4]: 8 and 5 and 9 and 2
- Average Left Side ([2]; Results with Lidocaine, average pain of mouth, cheeks, forehead, chin, left side, per patient): 10.00 and 6.00 and 5.00
- Average Right Side ([2]; Results with Lidocaine, average pain of mouth, cheeks, forehead, chin, right side, per patient): 4.00 and 8.25 and 9.25 and 9.00 and 4.50 and 10.00
- Pain After proc. Cheeks (Left Side) [2, 5]: 10 and 6 and 5
- Pain After proc. Chin (Left Side) [2, 5]: 10 and 6 and 5
- Pain After proc. Forehead (Left Side) [2, 5]: 10 and 6 (2×)
- Pain After proc. Mouth (Left Side) [2, 5]: 10 and 6 and 4
- Pain After proc. Cheeks (Right Side) [2, 6]: 4 and 7 and 8 and 9 (2×) and 10
- Pain After proc. Chin (Right Side) [2, 6]: 4 and 6 (2×) and 8 and 9 and 10
- Pain After proc. Forehead (Right Side) [2, 6]: 4 (2×) and 10 (2×) and 8 and 9
- Pain After proc. Mouth (Right Side) [2, 6]: 4 (2×) and 10 (2×) and 8 and 9
- Pain After proc. Cheeks (Unmasked Side) [2, 7]: 8 (3×) and 9 and 2 and 5 and 6
- Pain After proc. Chin (Unmasked Side) [2, 7]: 8 (3×) and 9 and 2 and 5 and 6
- Pain After proc. Forehead (Unmasked Side) [2, 7]: 8 (3×) and 9 and 2 and 5 and 7
- Pain After proc. Mouth (Unmasked Side) [2, 7]: 8 (3×) and 9 and 2 and 5 and 6
- Average Pain (Unmasked Side) [2, 8]: 8 (3×) and 9 and 2 and 5 and 6.3
- Pain After proc. Cheeks (Unmasked Side) [2, 8]: 8 (3×) and 9 and 2 and 5 and 6
- Pain After proc. Chin (Unmasked Side) [2, 8]: 8 (3×) and 9 and 2 and 5 and 6
- Pain After proc. Forehead (Unmasked Side) [2, 8]: 8 (3×) and 9 and 2 and 5 and 7
- Pain After proc. Mouth (Unmasked Side) [2, 8]: 8 (3×) and 9 and 2 and 5 and 6
- Pain After proc. Cheeks (Unmasked Side) [2, 9]: 8 (3×) and 9 and 2 and 5 and 6
- Pain After proc. Chin (Unmasked Side) [2, 9]: 8 (3×) and 9 and 2 and 5 and 6
- Pain After proc. Forehead (Unmasked Side) [2, 9]: 8 (3×) and 9 and 2 and 5 and 7
- Pain After proc. Mouth (Unmasked Side) [2, 9]: 8 (3×) and 9 and 2 and 5 and 6
- Average Pain (Unmasked Side) ([2]; Table XII summary, 0-10 scale, per patient): 8 (3×) and 9 and 2 and 5 and 6.3
- Average Pain (Unmasked Side) [2, 10]: 8 (3×) and 9 and 2 and 5 and 6.3
- Pain After proc. Cheeks (Unmasked Side) [2, 10]: 8 (3×) and 9 and 2 and 5 and 6
- Pain After proc. Chin (Unmasked Side) [2, 10]: 8 (3×) and 9 and 2 and 5 and 6
- Pain After proc. Forehead (Unmasked Side) [2, 10]: 8 (3×) and 9 and 2 and 5 and 7
- Pain After proc. Mouth (Unmasked Side) [2, 10]: 8 (3×) and 9 and 2 and 5 and 6
- Numbness Cheeks- (Left Side) ([3]; 1-10 scale, cheeks, left side): 4 and 8 and 9 and 3
- Numbness Cheeks- (Right Side) ([3]; 1-10 scale, cheeks, right side): 7 (3×) and 3 and 5 and 4 and 6
- Numbness- Chin (Left Side) ([3]; 1-10 scale, chin, left side): 4 and 8 and 9 and 7
- Numbness- Chin (Right Side) ([3]; 1-10 scale, chin, right side): 3 and 4 (2×) and 5 and 7 (2×) and 6
- Numbness- Forehead (Left Side) ([3]; 1-10 scale, forehead, left side): 4 and 8 and 9 and 2
- Numbness- Forehead (Right Side) ([3]; 1-10 scale, forehead, right side): 4 (2×) and 3 and 6 (2×) and 7 and 8
- Numbness- Mouth (Left Side) ([3]; 1-10 scale, mouth, left side): 4 and 8 and 9 and 5
- Numbness- Mouth (Right Side) ([3]; 1-10 scale, mouth, right side): 5 and 3 and 6 (2×) and 7 and 4 and 8
- Numbness Cheeks- (Unmasked Side) [3, 11]: 8 (3×) and 6 (4×)
- Numbness- Chin (Unmasked Side) [3, 11]: 9 and 6 (4×) and 8 (2×)
- Numbness- Forehead (Unmasked Side) [3, 11]: 9 and 6 (4×) and 8 (2×)
- Numbness- Mouth (Unmasked Side) [3, 11]: 8 (3×) and 6 (4×)
- Numbness Cheeks- (Unmasked Side) [3, 12]: 8 (3×) and 6 (4×)
- Numbness- Chin (Unmasked Side) [3, 12]: 9 and 6 (4×) and 8 (2×)
- Numbness- Forehead (Unmasked Side) [3, 12]: 9 and 6 (4×) and 8 (2×)
- Numbness- Mouth (Unmasked Side) [3, 12]: 8 (3×) and 6 (4×)
- Numbness Average Unmasked Side ([3]; Table XI summary, 0-10 scale): 8.5 and 6 (4×) and 8 (2×)
- Average ([3]; Table XI, average numbness, unmasked side, 0-10 scale): 8.5 and 6 (4×) and 8 (2×)
- Numbness Cheeks- (Unmasked Side) [3, 13]: 8 (3×) and 6 (4×)
- Numbness- Chin (Unmasked Side) [3, 13]: 9 and 6 (4×) and 8 (2×)
- Numbness- Forehead (Unmasked Side) [3, 13]: 9 and 6 (4×) and 8 (2×)
- Numbness- Mouth (Unmasked Side) [3, 13]: 8 (3×) and 6 (4×)
